In ChEMBL document CHEMBL4043168, “The design and SAR of a novel series of 2-aminopyridine based LRRK2 inhibitors” (Bioorg Med Chem Lett, 2017) one finds Kp and inhibition data, which are given here for one compound.

Data set [1] is described as follows: Ratio of drug level in mouse brain to plasma at 10 mg/kg, po. It counts as ADME, organism-based. The conditions noted are these: read-out: BPR.
Data set [2] deals with Calcium/calmodulin-dependent protein kinase type II subunit alpha (Homo sapiens) (UniProt Q9UQM7). Description: Inhibition of CaMK2a labeling at conserved Lys2 (DLKPENLLLASK) in human PBMC at 1 uM.
Chain of Calcium/calmodulin-dependent protein kinase type II subunit alpha (Homo sapiens) (Q9UQM7 whole entry): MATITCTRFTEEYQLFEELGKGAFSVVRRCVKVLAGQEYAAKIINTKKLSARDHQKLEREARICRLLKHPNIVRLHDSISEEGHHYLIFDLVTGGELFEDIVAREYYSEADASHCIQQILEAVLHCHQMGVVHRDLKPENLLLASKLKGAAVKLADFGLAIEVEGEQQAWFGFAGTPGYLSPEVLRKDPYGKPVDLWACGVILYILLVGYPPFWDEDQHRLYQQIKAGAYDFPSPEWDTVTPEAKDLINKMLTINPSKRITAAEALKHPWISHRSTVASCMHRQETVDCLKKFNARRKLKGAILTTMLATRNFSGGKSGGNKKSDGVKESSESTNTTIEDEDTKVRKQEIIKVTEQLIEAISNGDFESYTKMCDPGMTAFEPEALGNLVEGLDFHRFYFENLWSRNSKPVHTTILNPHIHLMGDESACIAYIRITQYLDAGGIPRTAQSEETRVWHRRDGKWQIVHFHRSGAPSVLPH
For data set [3], the target named is Serine/threonine-protein kinase Chk2 (Homo sapiens) (UniProt O96017). Description: Inhibition of CHK2 labeling at conserved Lys1 (VAIKIISK) in human PBMC at 1 uM.
Chain of Serine/threonine-protein kinase Chk2 (Homo sapiens) (O96017 whole entry): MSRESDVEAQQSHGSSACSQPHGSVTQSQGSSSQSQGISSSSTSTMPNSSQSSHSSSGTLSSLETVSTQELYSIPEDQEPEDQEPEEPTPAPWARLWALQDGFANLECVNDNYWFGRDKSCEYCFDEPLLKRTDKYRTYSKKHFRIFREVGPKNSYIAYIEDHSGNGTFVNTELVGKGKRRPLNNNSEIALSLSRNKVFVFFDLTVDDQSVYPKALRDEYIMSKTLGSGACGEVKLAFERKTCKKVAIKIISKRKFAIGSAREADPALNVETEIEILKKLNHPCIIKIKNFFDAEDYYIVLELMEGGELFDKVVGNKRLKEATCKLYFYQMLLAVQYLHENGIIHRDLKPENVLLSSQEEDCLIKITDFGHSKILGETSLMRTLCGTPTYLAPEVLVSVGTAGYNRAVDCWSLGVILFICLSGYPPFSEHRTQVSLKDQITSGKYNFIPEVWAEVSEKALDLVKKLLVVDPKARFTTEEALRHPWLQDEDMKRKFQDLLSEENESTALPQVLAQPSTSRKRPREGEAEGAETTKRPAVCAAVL
The target in data set [4] is Diacylglycerol kinase alpha (Homo sapiens) (UniProt P23743). Description: Inhibition of DGKA labeling at activation Loop (IDPVPNTHPLLVFVNPKSGGK) in human PBMC at 1 uM.
Chain of Diacylglycerol kinase alpha (Homo sapiens) (P23743 whole entry): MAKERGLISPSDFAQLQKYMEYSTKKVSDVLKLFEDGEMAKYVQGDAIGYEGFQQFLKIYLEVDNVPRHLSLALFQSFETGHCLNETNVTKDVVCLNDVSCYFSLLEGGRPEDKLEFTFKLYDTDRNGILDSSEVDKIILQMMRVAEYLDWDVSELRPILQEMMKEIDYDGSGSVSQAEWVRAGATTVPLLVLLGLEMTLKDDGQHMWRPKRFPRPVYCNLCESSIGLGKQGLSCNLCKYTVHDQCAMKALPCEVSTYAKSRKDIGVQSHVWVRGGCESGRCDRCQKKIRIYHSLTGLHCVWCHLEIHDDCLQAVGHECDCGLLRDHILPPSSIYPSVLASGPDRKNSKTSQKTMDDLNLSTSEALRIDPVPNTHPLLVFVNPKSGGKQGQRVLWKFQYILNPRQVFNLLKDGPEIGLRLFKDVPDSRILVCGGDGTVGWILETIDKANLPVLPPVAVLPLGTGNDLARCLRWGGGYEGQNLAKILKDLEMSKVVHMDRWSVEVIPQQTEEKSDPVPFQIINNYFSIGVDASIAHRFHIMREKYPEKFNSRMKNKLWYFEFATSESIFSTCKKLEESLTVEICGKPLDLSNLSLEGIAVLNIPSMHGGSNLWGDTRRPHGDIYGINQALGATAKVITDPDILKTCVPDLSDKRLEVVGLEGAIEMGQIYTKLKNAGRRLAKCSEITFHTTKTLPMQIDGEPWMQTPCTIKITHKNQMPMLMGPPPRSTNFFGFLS
For data set [5], the target named is Serine/threonine-protein kinase 24 (Homo sapiens) (UniProt Q9Y6E0). As to the kind of experiment: Inhibition of MST3 conserved Lys2 (DIKAANVLLSEHGEVK) in human PBMC at 1 uM.
Chain of Serine/threonine-protein kinase 24 (Homo sapiens) (Q9Y6E0 whole entry, looked up): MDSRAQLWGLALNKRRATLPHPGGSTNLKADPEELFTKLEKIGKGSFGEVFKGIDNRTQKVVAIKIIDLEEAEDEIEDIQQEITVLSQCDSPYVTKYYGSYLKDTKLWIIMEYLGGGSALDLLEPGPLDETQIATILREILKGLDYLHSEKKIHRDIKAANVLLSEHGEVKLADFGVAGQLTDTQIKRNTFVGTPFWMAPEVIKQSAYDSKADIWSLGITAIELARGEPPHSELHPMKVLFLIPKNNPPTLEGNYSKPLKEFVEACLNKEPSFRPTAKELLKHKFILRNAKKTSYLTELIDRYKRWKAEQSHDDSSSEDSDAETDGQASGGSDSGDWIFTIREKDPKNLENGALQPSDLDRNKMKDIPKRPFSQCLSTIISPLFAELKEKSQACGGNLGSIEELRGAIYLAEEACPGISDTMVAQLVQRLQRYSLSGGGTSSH
Data set [6] concerns the target Serine/threonine-protein kinase Nek1 (Homo sapiens) (UniProt Q96PY6). As to the kind of experiment: Inhibition of NEK1 conserved Lys2 (DIKSQNIFLTK) in human PBMC at 1 uM.
The target in data set [7] is Cyclin-dependent kinase 2 (Homo sapiens) (UniProt P24941). Description: Inhibition of CDK2 labeling at conserved Lys2 (DLKPQNLLINTEGAIK) in human PBMC at 0.1 uM.
Data set [8] has as its target Inhibitor of nuclear factor kappa-B kinase subunit alpha (Homo sapiens) (UniProt O15111). As to the kind of experiment: Inhibition of IKKa conserved Lys2 (DLKPENIVLQDVGGK) in human PBMC at 0.1 uM.
For data set [9], the target named is T1, Inhibitor of nuclear factor kappa-B kinase subunit epsilon (Homo sapiens) (UniProt Q14164).
T1 sequence (whole entry): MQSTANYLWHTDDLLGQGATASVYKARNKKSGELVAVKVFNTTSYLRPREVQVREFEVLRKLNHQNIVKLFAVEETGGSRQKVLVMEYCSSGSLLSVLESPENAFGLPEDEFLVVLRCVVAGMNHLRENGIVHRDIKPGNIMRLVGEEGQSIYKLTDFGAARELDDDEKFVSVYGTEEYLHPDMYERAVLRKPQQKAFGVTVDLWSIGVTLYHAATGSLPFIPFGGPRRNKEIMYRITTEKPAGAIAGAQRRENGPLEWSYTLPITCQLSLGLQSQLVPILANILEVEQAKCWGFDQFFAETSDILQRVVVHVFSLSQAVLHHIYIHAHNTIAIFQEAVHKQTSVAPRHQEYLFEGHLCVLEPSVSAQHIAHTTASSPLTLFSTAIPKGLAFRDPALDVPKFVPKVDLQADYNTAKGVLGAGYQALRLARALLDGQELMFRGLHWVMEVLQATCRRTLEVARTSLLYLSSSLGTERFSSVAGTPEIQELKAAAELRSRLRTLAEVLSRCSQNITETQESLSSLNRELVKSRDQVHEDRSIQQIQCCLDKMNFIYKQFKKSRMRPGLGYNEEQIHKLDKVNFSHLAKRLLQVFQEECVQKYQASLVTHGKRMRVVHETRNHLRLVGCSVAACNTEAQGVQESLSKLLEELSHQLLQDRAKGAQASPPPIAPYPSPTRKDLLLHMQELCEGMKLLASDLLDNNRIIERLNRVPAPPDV
Description: Inhibition of IKKe conserved Lys1 (SGELVAVKVFNTTSYLRPR) in human PBMC at 0.1 uM.

Data set [10] deals with Mitogen-activated protein kinase kinase kinase kinase 5 (Homo sapiens) (UniProt Q9Y4K4). Description: Inhibition of KHS1 conserved Lys1 (NVHTGELAAVKIIK) in human PBMC at 0.1 uM.
Chain of Mitogen-activated protein kinase kinase kinase kinase 5 (Homo sapiens) (Q9Y4K4 whole entry, looked up): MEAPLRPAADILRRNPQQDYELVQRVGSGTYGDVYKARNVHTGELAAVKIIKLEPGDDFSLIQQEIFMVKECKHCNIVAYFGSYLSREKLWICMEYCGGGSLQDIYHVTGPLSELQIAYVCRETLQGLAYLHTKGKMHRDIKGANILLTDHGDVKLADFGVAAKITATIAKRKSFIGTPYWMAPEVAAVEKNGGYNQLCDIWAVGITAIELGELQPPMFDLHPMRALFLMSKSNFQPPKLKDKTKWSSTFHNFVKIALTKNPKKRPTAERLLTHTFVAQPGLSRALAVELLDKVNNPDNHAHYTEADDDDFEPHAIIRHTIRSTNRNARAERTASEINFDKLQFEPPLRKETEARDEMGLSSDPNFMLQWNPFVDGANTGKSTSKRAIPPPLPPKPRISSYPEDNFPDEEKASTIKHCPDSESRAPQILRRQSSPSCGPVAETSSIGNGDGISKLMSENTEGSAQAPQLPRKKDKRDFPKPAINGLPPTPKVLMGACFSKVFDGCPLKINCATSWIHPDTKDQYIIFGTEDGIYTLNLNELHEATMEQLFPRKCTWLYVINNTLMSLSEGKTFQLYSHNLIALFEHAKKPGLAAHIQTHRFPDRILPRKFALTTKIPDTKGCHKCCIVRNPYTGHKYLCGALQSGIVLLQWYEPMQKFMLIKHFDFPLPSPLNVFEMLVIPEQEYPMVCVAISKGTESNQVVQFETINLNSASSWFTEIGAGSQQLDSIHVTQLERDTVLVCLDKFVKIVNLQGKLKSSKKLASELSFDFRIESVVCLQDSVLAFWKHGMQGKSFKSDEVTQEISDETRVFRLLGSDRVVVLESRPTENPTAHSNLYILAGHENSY
Data set [11] has as its target T2, Mitogen-activated protein kinase kinase kinase 6 (Homo sapiens) (UniProt O95382).
T2 sequence (whole entry): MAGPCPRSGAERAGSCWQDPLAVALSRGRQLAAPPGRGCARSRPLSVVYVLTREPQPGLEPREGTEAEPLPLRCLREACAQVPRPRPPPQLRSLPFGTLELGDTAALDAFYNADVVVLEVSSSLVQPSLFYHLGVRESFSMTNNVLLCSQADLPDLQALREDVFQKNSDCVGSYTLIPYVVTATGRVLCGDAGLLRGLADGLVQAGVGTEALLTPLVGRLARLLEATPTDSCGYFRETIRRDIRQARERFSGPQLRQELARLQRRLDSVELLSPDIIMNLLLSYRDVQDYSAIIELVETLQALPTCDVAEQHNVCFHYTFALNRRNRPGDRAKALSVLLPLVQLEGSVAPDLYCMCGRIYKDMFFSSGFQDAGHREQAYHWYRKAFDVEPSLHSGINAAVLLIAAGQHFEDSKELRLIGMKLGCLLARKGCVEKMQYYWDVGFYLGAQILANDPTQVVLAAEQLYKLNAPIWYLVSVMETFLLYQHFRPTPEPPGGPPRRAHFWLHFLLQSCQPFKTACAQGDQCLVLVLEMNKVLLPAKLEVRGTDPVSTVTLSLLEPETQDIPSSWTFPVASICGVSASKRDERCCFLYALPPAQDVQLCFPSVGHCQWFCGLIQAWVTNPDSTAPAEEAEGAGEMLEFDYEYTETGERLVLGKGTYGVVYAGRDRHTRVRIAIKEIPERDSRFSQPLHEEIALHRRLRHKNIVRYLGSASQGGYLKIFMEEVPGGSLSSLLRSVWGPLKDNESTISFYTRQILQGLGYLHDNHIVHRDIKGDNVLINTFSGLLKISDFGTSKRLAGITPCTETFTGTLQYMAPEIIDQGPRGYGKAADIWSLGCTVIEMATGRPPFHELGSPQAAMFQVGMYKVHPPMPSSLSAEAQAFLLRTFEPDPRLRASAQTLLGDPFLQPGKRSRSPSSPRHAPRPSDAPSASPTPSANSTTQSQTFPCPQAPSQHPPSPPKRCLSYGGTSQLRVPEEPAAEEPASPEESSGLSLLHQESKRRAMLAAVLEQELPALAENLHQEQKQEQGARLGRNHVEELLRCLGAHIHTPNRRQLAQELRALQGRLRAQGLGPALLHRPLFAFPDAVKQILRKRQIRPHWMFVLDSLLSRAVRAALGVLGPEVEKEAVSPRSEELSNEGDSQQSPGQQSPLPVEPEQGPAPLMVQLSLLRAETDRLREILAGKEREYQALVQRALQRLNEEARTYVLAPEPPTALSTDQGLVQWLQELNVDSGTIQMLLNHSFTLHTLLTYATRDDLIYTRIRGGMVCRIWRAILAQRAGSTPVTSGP
Description: Inhibition of MAP3K6 conserved Lys2 (DIKGDNVLINTFSGLLK) in human PBMC at 0.1 uM.

Chain of Serine/threonine-protein kinase Nek1 (Homo sapiens) (Q96PY6 whole entry): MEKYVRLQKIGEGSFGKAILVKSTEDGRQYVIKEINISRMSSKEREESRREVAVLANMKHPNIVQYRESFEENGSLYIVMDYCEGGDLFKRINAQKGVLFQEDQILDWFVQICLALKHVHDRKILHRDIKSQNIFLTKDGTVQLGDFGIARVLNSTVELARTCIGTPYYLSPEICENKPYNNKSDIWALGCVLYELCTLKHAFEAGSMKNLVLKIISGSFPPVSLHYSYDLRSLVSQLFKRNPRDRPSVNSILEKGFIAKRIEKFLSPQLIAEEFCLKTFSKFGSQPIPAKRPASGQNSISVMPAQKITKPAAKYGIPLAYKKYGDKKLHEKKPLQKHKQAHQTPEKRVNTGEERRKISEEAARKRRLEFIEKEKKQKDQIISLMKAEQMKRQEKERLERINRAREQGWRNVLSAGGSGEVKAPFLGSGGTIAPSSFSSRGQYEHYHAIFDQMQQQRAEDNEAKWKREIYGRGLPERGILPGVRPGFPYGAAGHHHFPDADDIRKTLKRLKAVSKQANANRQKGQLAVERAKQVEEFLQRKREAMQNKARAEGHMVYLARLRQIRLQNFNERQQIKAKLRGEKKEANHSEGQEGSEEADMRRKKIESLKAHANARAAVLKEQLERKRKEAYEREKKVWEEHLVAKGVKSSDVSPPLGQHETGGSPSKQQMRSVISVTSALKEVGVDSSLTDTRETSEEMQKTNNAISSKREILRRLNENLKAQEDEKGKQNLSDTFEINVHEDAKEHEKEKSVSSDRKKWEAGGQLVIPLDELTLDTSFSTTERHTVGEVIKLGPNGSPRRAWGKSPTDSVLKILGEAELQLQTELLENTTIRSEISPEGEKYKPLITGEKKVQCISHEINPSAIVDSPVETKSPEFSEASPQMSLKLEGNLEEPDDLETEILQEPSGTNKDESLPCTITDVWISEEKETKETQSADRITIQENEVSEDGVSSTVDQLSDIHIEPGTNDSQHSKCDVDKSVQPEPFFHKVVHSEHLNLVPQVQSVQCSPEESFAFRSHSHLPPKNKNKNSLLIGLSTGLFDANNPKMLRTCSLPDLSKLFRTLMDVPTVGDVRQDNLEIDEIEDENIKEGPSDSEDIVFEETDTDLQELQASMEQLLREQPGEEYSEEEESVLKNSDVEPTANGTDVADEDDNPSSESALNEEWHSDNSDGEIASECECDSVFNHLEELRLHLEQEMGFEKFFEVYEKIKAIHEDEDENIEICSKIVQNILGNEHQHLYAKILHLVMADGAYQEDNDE
Chain of Inhibitor of nuclear factor kappa-B kinase subunit alpha (Homo sapiens) (O15111 whole entry): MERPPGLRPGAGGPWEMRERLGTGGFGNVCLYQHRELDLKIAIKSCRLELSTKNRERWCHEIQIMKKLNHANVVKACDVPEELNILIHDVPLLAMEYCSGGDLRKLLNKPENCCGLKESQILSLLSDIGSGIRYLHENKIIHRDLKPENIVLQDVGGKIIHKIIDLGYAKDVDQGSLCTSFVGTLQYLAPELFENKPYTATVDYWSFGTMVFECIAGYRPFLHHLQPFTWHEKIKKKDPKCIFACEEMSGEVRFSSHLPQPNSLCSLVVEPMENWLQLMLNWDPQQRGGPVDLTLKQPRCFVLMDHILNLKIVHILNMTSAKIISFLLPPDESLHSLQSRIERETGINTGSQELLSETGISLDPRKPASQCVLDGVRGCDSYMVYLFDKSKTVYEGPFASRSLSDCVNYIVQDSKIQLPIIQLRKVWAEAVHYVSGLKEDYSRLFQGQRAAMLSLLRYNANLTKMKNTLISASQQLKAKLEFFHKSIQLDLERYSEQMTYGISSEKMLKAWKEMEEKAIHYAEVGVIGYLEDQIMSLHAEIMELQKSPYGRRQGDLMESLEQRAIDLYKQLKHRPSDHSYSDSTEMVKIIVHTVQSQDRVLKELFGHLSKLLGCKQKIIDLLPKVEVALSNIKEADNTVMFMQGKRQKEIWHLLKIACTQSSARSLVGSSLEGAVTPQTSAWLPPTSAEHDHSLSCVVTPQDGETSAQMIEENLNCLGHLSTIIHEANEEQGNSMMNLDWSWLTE

As for `CC(C)n1cc(-c2cc(-c3ccc(CN4CCOCC4)cc3)cnc2N)nn1`, the Kp in data set [1] was determined as 1.3. Besides, the inhibition in data set [2] was -0.4%; in data set [3], 9.1%; in data set [4] it was -9.6%; in data set [5], 7.2%; in data set [6], 10%; in data set [7], 19.2%. Besides, the inhibition in data set [8] was -7.4%; in data set [9], 6.2%; in [10], 14.7%; in data set [11], -0.5%.

The term inhibition denotes the change of the read-out against control, counted positive when it falls.
